The record followed here is publication PMC5578075 (International Journal of Molecular Sciences, 2017).

T1 sequence (O42275 24-633): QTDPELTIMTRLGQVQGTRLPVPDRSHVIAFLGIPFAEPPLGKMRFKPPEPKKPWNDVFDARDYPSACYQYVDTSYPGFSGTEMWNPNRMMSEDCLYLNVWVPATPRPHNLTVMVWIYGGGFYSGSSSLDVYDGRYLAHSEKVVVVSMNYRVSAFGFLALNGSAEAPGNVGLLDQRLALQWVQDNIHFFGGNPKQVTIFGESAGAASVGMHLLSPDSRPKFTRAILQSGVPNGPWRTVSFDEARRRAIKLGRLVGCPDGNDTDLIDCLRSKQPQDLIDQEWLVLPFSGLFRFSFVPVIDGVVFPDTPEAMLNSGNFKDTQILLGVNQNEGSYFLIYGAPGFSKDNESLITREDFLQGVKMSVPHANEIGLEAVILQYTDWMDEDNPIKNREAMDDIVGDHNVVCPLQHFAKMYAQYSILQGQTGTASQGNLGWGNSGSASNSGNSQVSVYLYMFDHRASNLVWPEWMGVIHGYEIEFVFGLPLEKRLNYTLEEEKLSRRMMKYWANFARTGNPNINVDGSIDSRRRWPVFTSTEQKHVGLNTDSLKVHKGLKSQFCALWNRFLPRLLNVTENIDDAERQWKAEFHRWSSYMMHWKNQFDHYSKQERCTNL

The first experiment has as its target T1, acetylcholinesterase from Electrophorus electricus (electric eel) (Electrophorus electricus, UniProt O42275).
T1 construct: purchased Sigma-Aldrich C2888
Briefly: biochemical. The settings on record: AChA, IC50 (anti-acetylcholinesterase activity), total extracts of C. officinalis flowers; mean ± SD of five experiments. The protocol: For the further detailed studies, samples of the individual flavonoids previously isolated from C. officinalis flowers were used. The acetylcholinesterase inhibition assay was performed using a spectrophotometric method. […] Additionally minor flavonoids of C. officinalis flowers were included for analysis such as 3-O-(2′′-acetyl)-glucosides, 3-O-(2′′,6′′-di-acetyl)-glucosides, 3-O-(3′′-rhamnosyl)-glucosides, 3-O-(4′′-rhamnosyl)-glucosides and 3-O-rhamnosides (Figure 3).
The acetylcholinesterase inhibition assay was performed using a spectrophotometric microplate assay. The reaction mixture consisted of 235.7 µL of 0.1 M phosphate buffer pH 7.4, 20 µL of a solution of acetylcholinesterase (final concentration 0.1 U/mL in 0.1 M phosphate buffer pH 7.4), 2.7 µL of test compound or plant extract solutions in dimethyl sulfoxide (DMSO). The controls contained the corresponding volume of DMSO of test compound solutions. The enzymatic reaction was initiated by the addition of 1.6 µL of α-naphthyl acetate solution in DMSO. After mixing for 90 s and incubation at 25 °C for 90 s, the reaction was stopped with 20 µL of a 5% solution of sodium dodecyl sulfate (SDS) in water. The color was developed with 20 µL of Fast Blue B salt solution (final concentration 0.17 mM in water). The method was realized in 96-well plates. The microplate was read by a Bio-Rad microplate reader Model 3550 UV. Enzyme activity and inhibition were quantified by determination of the absorbance at 600 nm after the formation of the purple-colored diazonium dye as a percentage. […] The percentage of inhibition was calculated relative to a control sample, for which the anti-acetylcholinesterase activity was assessed under identical conditions, but in the absence of the test compound, using the expression:% Inhibition = {[(ACE − AC) − (ATE − AT)]/(ACE − AC)} × 100% where ACE is the absorbance at 600 nm of the control sample with enzyme; AC is the absorbance at 600 nm of the control sample without enzyme; ATE is the absorbance at 600 nm of the test compound (or plant extract) with enzyme; AT is the absorbance at 600 nm of the test compound (or plant extract) without enzyme.
In the case of `CN(C)C(=O)Oc1cccc([N+](C)(C)C)c1` [neostigmine, neostigmine bromide, reference compound], the IC50 came out at 3.36 µM.

Staying with this experiment, now noted: Anti-acetylcholinesterase activity, IC50, individual flavonoids; mean ± SD of three experiments.
As for `COc1cc(-c2oc3cc(O)cc(O)c3c(=O)c2O)ccc1O` [Isorhamnetin, 3,5,7,4′-tetrahydroxy-3′-methoxyflavone], the IC50 turned out to be 24.2 ± 0.74 µM. Same read-out and setting: to `C[C@@H]1O[C@@H](OC[C@H]2O[C@@H](Oc3c(-c4ccc(O)c(O)c4)oc4cc(O)cc(O)c4c3=O)[C@H](O)[C@@H](O)[C@@H]2O)[C@H](O)[C@H](O)[C@H]1O` [Quercetin 3-O-(6″-Rhap)-Glcp, quercetin-3-O-rutinoside] belongs 72.1 ± 2.04 µM.

The compound `O=c1c(O[C@@H]2O[C@H](CO)[C@@H](O)[C@H](O)[C@H]2O)c(-c2ccc(O)c(O)c2)oc2cc(O)cc(O)c12` [Quercetin 3-O-Glcp, quercetin-3-O-glucoside] yielded an IC50 of 70.1 ± 1.82 µM. Still for that read-out and setting: then `CN(C)C(=O)Oc1cccc([N+](C)(C)C)c1` [neostigmine, neostigmine bromide, reference compound], with 3.37 µM; and `CC1OC(Oc2c(-c3ccc(O)c(O)c3)oc3cc(O)cc(O)c3c2=O)C(O)C(O)C1O` (stereo not shown) [Quercetin 3-O-Rhap, quercetin-3-O-rhamnoside], with 48.8 ± 1.26 µM.

The experiment is the same for the next values; noted with them: individual flavonoids; mean ± SD of three experiments; read-out: Anti-acetylcholinesterase activity, IC50.
In the case of `CC(=O)OCC1OC(Oc2c(-c3ccc(O)c(O)c3)oc3cc(O)cc(O)c3c2=O)C(OC(C)=O)C(O)C1O` (stereo not shown) [Quercetin 3-O-(2″,6″-di-Ac)-Glcp, quercetin-3-O-(2′′,6′′-di-acetyl)-glucoside], the IC50 was 36.5 ± 1.02 µM. On the same count and under the same terms, then `CC1OC(OC2C(Oc3c(-c4ccc(O)c(O)c4)oc4cc(O)cc(O)c4c3=O)OC(C)C(O)C(O)C2O)C(O)C(O)C1O` (stereo not shown) [Quercetin 3-O-(2″-Rhap)-Rhap, quercetin-3-O-(2′′-rhamnosyl)-rhamnoside], with 67.9 ± 1.76 µM; and `COc1cc(-c2oc3cc(O)cc(O)c3c(=O)c2O[C@@H]2O[C@H](CO[C@@H]3O[C@@H](C)[C@H](O)[C@@H](O)[C@H]3O)[C@@H](O)[C@H](O)[C@H]2O)ccc1O` [Isorhamnetin 3-O-(6″-Rhap)-Glcp, isorhamnetin-3-O-rutinoside], with 97.3 ± 2.91 µM. For the compound `CC1OC(OC2C(Oc3c(-c4ccc(O)c(O)c4)oc4cc(O)cc(O)c4c3=O)OC(CO)C(O)C2O)C(O)C(O)C1O` (stereo not shown) [Quercetin 3-O-(2″-Rhap)-Glcp, quercetin-3-O-(2′′-rhamnosyl)-glucoside], the IC50 came to 71.9 ± 1.94 µM. For `CC1OC(OC2C(CO)OC(Oc3c(-c4ccc(O)c(O)c4)oc4cc(O)cc(O)c4c3=O)C(O)C2O)C(O)C(O)C1O` (stereo not shown) [Quercetin 3-O-(4″-Rhap)-Glcp, quercetin-3-O-(4′′-rhamnosyl)-glucoside], the IC50 is 70.3 ± 1.9 µM.

As to `COc1cc(-c2oc3cc(O)cc(O)c3c(=O)c2OC2OC(COC(C)=O)C(O)C(O)C2O)ccc1O` (stereo not shown) [Isorhamnetin 3-O-(6″-Ac)-Glcp, isorhamnetin-3-O-(6′′-acetyl)-glucoside], the IC50 stood at 68.2 ± 1.71 µM.

As for `COc1cc(-c2oc3cc(O)cc(O)c3c(=O)c2OC2OC(COC(C)=O)C(O)C(O)C2OC(C)=O)ccc1O` (stereo not shown) [Isorhamnetin 3-O-(2″,6″-di-Ac)-Glcp, isorhamnetin-3-O-(2′′,6′′-di-acetyl)-glucoside], the IC50 came out at 51.3 ± 1.53 µM. Still for that read-out and setting: to `COc1cc(-c2oc3cc(O)cc(O)c3c(=O)c2OC2OC(CO)C(O)C(O)C2OC2OC(C)C(O)C(O)C2O)ccc1O` (stereo not shown) [Isorhamnetin 3-O-(2″-Rhap)-Glcp, isorhamnetin-3-O-(2′′-rhamnosyl)-glucoside] belongs 94.3 ± 2.82 µM; to `COc1cc(-c2oc3cc(O)cc(O)c3c(=O)c2OC2OC(CO)C(O)C(O)C2OC(C)=O)ccc1O` (stereo not shown) [Isorhamnetin 3-O-(2″-Ac)-Glcp, isorhamnetin-3-O-(2′′-acetyl)-glucoside], 70.9 ± 1.84 µM; to `COc1cc(-c2oc3cc(O)cc(O)c3c(=O)c2OC2OC(COC3OC(C)C(O)C(O)C3O)C(O)C(O)C2OC2OC(C)C(O)C(O)C2O)ccc1O` (stereo not shown) [Isorhamnetin 3-O-(2″,6″-di-Rhap)-Glcp, isorhamnetin-3-O-(2′′,6′′-di-rhamnosyl)-glucoside], 98.5 ± 3.04 µM.

In the case of `CC1OC(OCC2OC(Oc3c(-c4ccc(O)c(O)c4)oc4cc(O)cc(O)c4c3=O)C(OC3OC(C)C(O)C(O)C3O)C(O)C2O)C(O)C(O)C1O` (stereo not shown) [Quercetin 3-O-(2″,6″-di-Rhap)-Glcp, quercetin-3-O-(2′′,6′′-di-rhamnosyl)-glucoside], the IC50 amounted to 94.9 ± 2.65 µM. Same read-out and setting: to `CC(=O)OC1C(Oc2c(-c3ccc(O)c(O)c3)oc3cc(O)cc(O)c3c2=O)OC(CO)C(O)C1O` (stereo not shown) [Quercetin 3-O-(2″-Ac)-Glcp, quercetin-3-O-(2′′-acetyl)-glucoside] belongs 48 ± 1.2 µM; to `COc1cc(-c2oc3cc(O)cc(O)c3c(=O)c2OC2OC(C)C(O)C(O)C2O)ccc1O` (stereo not shown) [Isorhamnetin 3-O-Rhap, isorhamnetin-3-O-rhamnoside], 74 ± 2.14 µM; to `COc1cc(-c2oc3cc(O)cc(O)c3c(=O)c2OC2OC(CO)C(O)C(OC3OC(C)C(O)C(O)C3O)C2O)ccc1O` (stereo not shown) [Isorhamnetin 3-O-(3″-Rhap)-Glcp, isorhamnetin-3-O-(3′′-rhamnosyl)-glucoside], 91.2 ± 2.73 µM.

Turning to `CC1OC(OC2C(O)C(CO)OC(Oc3c(-c4ccc(O)c(O)c4)oc4cc(O)cc(O)c4c3=O)C2O)C(O)C(O)C1O` (stereo not shown) [Quercetin 3-O-(3″-Rhap)-Glcp, quercetin-3-O-(3′′-rhamnosyl)-glucoside], the IC50 was 69.1 ± 1.84 µM. Still for that read-out and setting: then `CC(=O)OCC1OC(Oc2c(-c3ccc(O)c(O)c3)oc3cc(O)cc(O)c3c2=O)C(O)C(O)C1O` (stereo not shown) [Quercetin 3-O-(6″-Ac)-Glcp, quercetin-3-O-(6′′-acetyl)-glucoside], with 45.2 ± 1.12 µM. On the same count and under the same terms, then `COc1cc(-c2oc3cc(O)cc(O)c3c(=O)c2OC2OC(CO)C(OC3OC(C)C(O)C(O)C3O)C(O)C2O)ccc1O` (stereo not shown) [Isorhamnetin 3-O-(4″-Rhap)-Glcp, isorhamnetin-3-O-(4′′-rhamnosyl)-glucoside], with 92.1 ± 2.85 µM; and `COc1cc(-c2oc3cc(O)cc(O)c3c(=O)c2OC2OC(CO)C(O)C(O)C2O)ccc1O` (stereo not shown) [Isorhamnetin 3-O-Glcp, isorhamnetin-3-O-glucoside], with 89 ± 2.49 µM.

The experiment is the same for the next values; noted with them: negative control.
Turning to `[Cl-].[Na+]` [NaCl, reference compound], the “Anti-acetylcholinesterase activity of the negative control, in words” value is “inactive”.
